According to patent EP2401611B1, “IMPROVED METHODS FOR IDENTIFICATION” (Cambridge Enterprise Limited, priority 2009, dated 2010):

Tested on: TNF-alpha
Assay: Sub-lethal endotoxemia model (LPS challenge, serum TNF-alpha)
Assay type: in vivo, mouse
Conditions: very high / highest doses
Procedure: We selected the sub-lethal endotoxemia model in mouse, because this has been well characterised in our laboratory (see for example Fox et al. (2002) J. Med. Chem. 45:360-70; Fox et al. (2005) J. Med. Chem. 48:867-74). The extent of systemic inflammation in response to a single intraperitoneal injection of bacterial lipopolysaccharide (LPS) can be estimated by measuring serum TNF-alpha 2 hours post challenge.
Methods: Mice (CD1 strain; adult males; 6 per group) were treated with BSCI (in an appropriate vehicle) or with vehicle alone by an appropriate route. […] Simultaneously, one set of mice at each BSCI concentration received BIM 23627 at 4mg/animal (120mg/kg) by sub-cutaneous injection (a treatment condition known to suppress classical sstr2-mediated signalling, such as GH release, in rats; Tulipano et al. (2002) 143:1218-24). Between 30mins and 1hour after dosing (a period when a maximal plasma concentration of BSCI has been achieved), the inflammatory challenge was elicited by intraperitoneal injection of 750µg of LPS (Sigma; L4130 lot#024K4077; 900,000 EU/mg).
After a further 2 hours, the animals were sacrificed by CO2 asphyxiation, and blood was drawn by cardiac puncture. Serum was prepared by conventional methods, and the level of TNF-alpha in serum was measured using an ELISA (R&D Systems; Murine Quantikine code# MTA00) performed in accordance with the manufacturer's instructions.

C[C@@H]1C[C@H]2[C@@H]3CCC4=CC(=O)C=C[C@]4(C)[C@@]3(F)[C@@H](O)C[C@]2(C)[C@@]1(O)C(=O)CO [dexamethasone]
inhibition of TNF-alpha: more than 90%
